In brackets after ≈: the same amount, converted by molar mass.
How the values were obtained:
Assay type in all cases: functional
Staphylococcus aureus [1] = test: Antimicrobial activity against methicillin-sensitive Staphylococcus aureus 8325-4 by CLSI protocol based broth microdilution method
Enterococcus faecalis [2] = test: Antimicrobial activity against vancomycin-resistant Enterococcus faecalis ATCC 51575 by CLSI protocol based broth microdilution method
Enterococcus faecalis [3] = test: Antimicrobial activity against vancomycin-sensitive Enterococcus faecalis ATCC 19433 by CLSI protocol based broth microdilution method
Staphylococcus aureus [4] = test: Antimicrobial activity against methicillin-resistant Staphylococcus aureus ATCC 33591 by CLSI protocol based broth microdilution method

| SMILES | MIC (Staphylococcus aureus [1]) [µg/mL] | MIC (Enterococcus faecalis [2]) [µg/mL] | MIC (Enterococcus faecalis [3]) [µg/mL] | MIC (Staphylococcus aureus [4]) [µg/mL] |
| --- | --- | --- | --- | --- |
| COc1cc2c(-c3ccc(-c4ccccc4)cc3)cc3c4ccc5c(c4c[n+](C)c3c2cc1OC)OCO5.[Cl-] | 2 | 8 | 4 | 2 |
| COc1cc2c(ccc3c4ccc(OC)c(OC)c4c[n+](C)c23)c(C2=CCCCC2)c1OC.[Cl-] | 2 | 32 | 16 | 4 |
| COc1cc2c(ccc3c4ccc(OC)c(OC)c4c[n+](C)c23)c(C2CCCCC2)c1OC.[Cl-] | 1 | 8 | 8 | 2 |
| COc1cc2c(ccc3c4ccc(OC)c(OC)c4c[n+](C)c23)c(-c2ccc(N(C)C)cc2)c1OC.[Cl-] | 1 | 8 | 8 | 1 |
| CN[C@H](CC(C)C)C(=O)N[C@H]1C(=O)N[C@@H](CC(N)=O)C(=O)N[C@H]2C(=O)N[C@H]3C(=O)N[C@H](C(=O)N[C@H](C(=O)O)c4cc(O)cc(O)c4-c4cc3ccc4O)[C@H](O)c3ccc(c(Cl)c3)Oc3cc2cc(c3O[C@@H]2O[C@H](CO)[C@@H](O)[C@H](O)[C@H]2O[C@H]2C[C@](C)(N)[C@H](O)[C@H](C)O2)Oc2ccc(cc2Cl)[C@H]1O [VANCOMYCIN] | – | > 64 | 1 (≈ 0.69 µM) | – |
| CCC[C@@H]1C[C@@H](C(=O)N[C@@H]([C@H]2O[C@H](SC)[C@H](O)[C@@H](O)[C@H]2O)[C@H](C)Cl)N(C)C1 [CLINDAMYCIN] | 0.03 (≈ 0.0706 µM) | > 64 | 2 (≈ 4.71 µM) | > 64 |
| COc1cc2c(ccc3c4ccc(OC)c(OC)c4c[n+](C)c23)c(-c2ccoc2)c1OC.[Cl-] | 1 | 16 | 16 | 1 |
| COc1cc2ccc3c4ccc5c(c4c[n+](C)c3c2cc1OC)OCO5.[Cl-] | 32 | > 64 | 64 | 32 |
| COc1cc2c(-c3ccccc3)cc3c4ccc(OC)c(OC)c4c[n+](C)c3c2cc1OC.[Cl-] | 1 | 16 | 8 | 2 |
| C[n+]1cc2c3c(ccc2c2ccc4cc5c(cc4c21)OCO5)OCO3.[Cl-] [SANGUINARIUM CHLORIDE] | 2 | 16 | 8 | 2 |
| Cc1onc(-c2ccccc2)c1C(=O)N[C@@H]1C(=O)N2[C@@H]1SC(C)(C)[C@@H]2C(=O)O [OXACILLIN] | 0.06 (≈ 0.149 µM) | > 64 | 8 (≈ 19.9 µM) | > 64 |
| COc1cc2c(ccc3c4ccc(OC)c(OC)c4c[n+](C)c23)c(-c2cccnc2)c1OC.[Cl-] | 8 | 32 | 32 | 32 |
| COc1cc2c(ccc3c4ccc5c(c4c[n+](C)c23)OCO5)c(-c2ccccc2)c1OC.[Cl-] | 1 | 8 | 8 | 2 |
| COc1cc2c(-c3ccc(-c4ccccc4)cc3)cc3c4ccc(OC)c(OC)c4c[n+](C)c3c2cc1OC.[Cl-] | 0.5 | 16 | 16 | 0.5 |
| COc1cc(-c2c(OC)c(OC)cc3c2ccc2c4ccc(OC)c(OC)c4c[n+](C)c32)cc(OC)c1OC.[Cl-] | 4 | 32 | 32 | 4 |
| COc1cc2c(ccc3c4ccc5c(c4c[n+](C)c23)OCO5)c(-c2ccc(-c3ccccc3)cc2)c1OC.[Cl-] | 2 | 8 | 8 | 2 |
| COc1cc2c(ccc3c4ccc(OC)c(OC)c4c[n+](C)c23)c(-c2ccccc2)c1OC.[Cl-] | 1 | 4 | 4 | 1 |
| C=Cc1c(OC)c(OC)cc2c1ccc1c3ccc(OC)c(OC)c3c[n+](C)c21.[Cl-] | 1 | 8 | 8 | 2 |
| COc1cc2c(ccc3c4ccc(OC)c(OC)c4c[n+](C)c23)c(C2CC2)c1OC.[Cl-] | 1 | 8 | 8 | 2 |
| CC[C@H]1OC(=O)[C@H](C)[C@@H](O[C@H]2C[C@@](C)(OC)[C@@H](O)[C@H](C)O2)[C@H](C)[C@@H](O[C@@H]2O[C@H](C)C[C@H](N(C)C)[C@H]2O)[C@](C)(O)C[C@@H](C)C(=O)[C@H](C)[C@@H](O)[C@]1(C)O [ERYTHROMYCIN] | 0.13 (≈ 0.177 µM) | > 64 | 1 (≈ 1.36 µM) | > 64 |
| COc1cc2c(ccc3c4ccc(OC)c(OC)c4c[n+](C)c23)c(-c2ccc(-c3ccccc3)cc2)c1OC.[Cl-] | 0.5 | 8 | 4 | 0.5 |
| CN(C)[C@@H]1C(O)=C(C(N)=O)C(=O)[C@@]2(O)C(O)=C3C(=O)c4c(O)cccc4[C@@](C)(O)[C@H]3C[C@@H]12 [TETRACYCLINE] | 0.06 (≈ 0.135 µM) | > 64 | 0.5 (≈ 1.13 µM) | 64 (≈ 144 µM) |
| COc1cc2ccc3c4ccc(OC)c(OC)c4c[n+](C)c3c2cc1OC.[Cl-] | 32 | > 64 | > 64 | 32 |

Reference: ChEMBL document CHEMBL2203128, “Antibacterial activity of substituted 5-methylbenzo[c]phenanthridinium derivatives” (2012)
